Experimental data published in patent EP4810492A1, “NMT INHIBITOR, PREPARATION METHOD THEREFOR, AND USE THEREOF” (Nanjing Synnocare Pharmaceutical Technology Co., Ltd., priority 2023, dated 2025).
Like-named read-outs stand apart in the source and are kept apart here.

Legend:
[1] = Plasma concentrations in mice following oral administration; settings: ICR, mouse, po, 10 mg/kg
Description: (§1) This study evaluated the plasma concentrations of the compounds of the present invention in mice. ICR mice were procured from JOINN Laboratories (Suzhou) Co., Ltd. At the initiation of dosing, the animals were 6-8 weeks old and weighed 18-25 g. Mice were housed in transparent plastic cages (400 mm*240 mm*200 mm). The animal facility maintained a 12-hour light/12-hour dark cycle (lights on 07:00-19:00) using fluorescent lighting. The dark period may be intermittently interrupted as required for study-related activities. Ambient temperature and relative humidity were controlled within 20-26 °C and 40-70%, respectively. Animals were fed certified rodent chow and provided with drinking water filtered and sterilized through an ultrapure water system. All animals had ad libitum access to water throughout the study. Animals were fasted for at least 12 hours prior to dosing, and food was restored 4 hours post-dosing.
(§2) Prior to dosing, body weights were recorded, and healthy animals with similar weights were selected and randomly assigned to groups (n = 3 per group) based on body weight. The compounds were formulated in a 0.5% aqueous carboxymethyl cellulose (CMC) solution and administered orally at a single dose of 10 mg/kg. Blood samples (≥0.2 mL) were collected via venipuncture at 1 h and 4 h post-dose into EDTA-K2 anticoagulant tubes. Tubes were gently inverted to mix, immediately placed in an ice-water bath, and rapidly centrifuged at 4,000 rpm for 10 min at 4 °C to separate plasma. Plasma was stored at -70 °C until analysis.
(§3) Calibration curve and QC plasma samples: Working solutions for the calibration curve and QC samples were prepared using 80% methanol in water (Thermo Fisher) as the diluent. To prepare plasma calibration standards and QC samples, 5 µL of each working solution was added to 45 µL of blank plasma and mixed. To the prepared calibration and QC samples, 300 µL of internal standard solution (tolbutamide at 8 µg/mL in acetonitrile, Thermo Fisher) was added. […] The supernatant was collected and analyzed by liquid chromatography-tandem mass spectrometry (LC-MS/MS; AB Sciex API 5000).
(§4) Plasma sample pretreatment: After thawing at room temperature, 50 µL of each plasma sample was mixed with 300 µL of the internal standard solution (tolbutamide at 8 µg/mL in acetonitrile, Thermo Fisher). […] The supernatant was collected and analyzed by LC-MS/MS (AB Sciex API 5000).
(§5) Raw chromatograms, concentrations, and accuracy data were generated using Analyst software version 1.6.3.

[2] = target: T1, NMT1 enzyme (Homo sapiens, UniProt P30419); assay: Inhibitory activity on NMT1 enzyme catalysis (fluorescence intensity assay); assay type: biochemical
T1 sequence (P30419 1-496): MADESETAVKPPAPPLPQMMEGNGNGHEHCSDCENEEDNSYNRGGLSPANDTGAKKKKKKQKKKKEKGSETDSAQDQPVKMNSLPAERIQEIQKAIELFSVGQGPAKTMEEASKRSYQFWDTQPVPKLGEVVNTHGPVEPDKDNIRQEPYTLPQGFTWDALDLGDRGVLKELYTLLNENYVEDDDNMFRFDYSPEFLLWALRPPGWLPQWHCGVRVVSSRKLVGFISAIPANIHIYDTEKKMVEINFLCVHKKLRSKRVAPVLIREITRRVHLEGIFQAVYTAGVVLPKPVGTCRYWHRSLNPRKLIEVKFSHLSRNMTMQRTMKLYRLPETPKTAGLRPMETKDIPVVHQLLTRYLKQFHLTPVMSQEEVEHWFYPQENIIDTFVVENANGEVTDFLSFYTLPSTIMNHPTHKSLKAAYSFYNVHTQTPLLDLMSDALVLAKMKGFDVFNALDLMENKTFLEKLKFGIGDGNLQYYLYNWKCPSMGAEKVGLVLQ
Procedure: This study evaluated the ability of the compounds of the invention to inhibit NMT1 catalytic activity in vitro. […] The final concentration of the NMT1 enzyme was 6 nM, the final concentration of CPM (Reactive thiol fluorescence probe, Invitrogen, D346) was 1 µM, the final concentration of HSPP60 SRC was 20 µM, and the final concentration of DMSO was 0.5%.
Compounds were dissolved in DMSO to obtain 10 mM stock solutions. Dose-response solutions were prepared with a top endpoint compound concentration of 3 mM, followed by three-fold serial dilutions in DMSO, totaling ten data points. […] Then, 2.5 µL of the NMT1 enzyme working solution was added to the 384-well assay plate, followed by incubation at 25 °C for 10 minutes. Subsequently, 5 µL of the CPM and myristoyl-CoA working solution was added, the plate was centrifuged at 1000 rpm for 1 minute, and then 2.5 µL of the HSPP60 SRC working solution was added to initiate the reaction. The reaction was incubated at 25 °C for 45 minutes.
The IC50 curve of the compounds was fitted using the software XLfit 5.5.0 according to the nonlinear regression equation.

[3] = system: MV-4-11 cells; assay: Anti-proliferative activity against MV-4-11 cells (cell viability chemiluminescence); assay type: cell-based; settings: MV4-11, 72 h, MV-4-11 human monocytic leukemia cells, three days of exposure
Procedure: This study utilized a cell proliferation assay to analyze the cytotoxicity of MV-4-11 human monocytic leukemia cells after three days of exposure to NMT1 inhibitors. The MV-4-11 cell line was purchased from Nanjing Cobuilder Biotechnology Co., Ltd., and cultured in IMDM medium (Viva cell) in an incubator (Thermo) at 37 °C with 5% CO2. In this experiment, NMT1 inhibitors were dissolved in DMSO to obtain 600 µM stock solutions. Dose-response solutions were prepared with a top endpoint compound concentration of 3 µM, followed by three-fold serial dilutions in DMSO, totaling eight data points. The final concentration of DMSO was 0.5%.
MV-4-11 cells were seeded into a white 96-well plate, 80 µL of cell suspension per well, containing 6000 MV-4-11 cells. The cell plate was placed in the CO2 incubator for overnight culture. Then, 20 µL of NMT1 inhibitor solutions at different concentrations were added to the wells. The 96-well plate was placed back into the incubator for three days. Another cell plate was prepared, and the signal was read on the day of drug addition to serve as the maximum value (Max value in the equation below) for data analysis. To this cell plate, 25 µL of cell viability chemiluminescence detection reagent was added per well, followed by incubation at room temperature for 10 minutes to stabilize the luminescence signal. A multi-label analyzer was used for reading.
The raw data were converted into inhibition rates using the equation (Sample - Min) / (Max - Min) * 100%. The IC50 values were then determined by fitting a four-parameter curve (using the "log(inhibitor) vs. response - Variable slope" model in GraphPad Prism). Min: wells treated with 0.5% DMSO; Max: Day 0 wells. Table 1 provides the inhibitory activity of the compounds of the invention on MV-4-11 cell proliferation. Table 1: Compound Inhibitory Activity against NMT1 Enzyme (IC50) and Anti-proliferative Activity against MV-4-11 Cell line (IC50)

[4] = mouse, in vivo, po, 10 mg/kg
Description: as §1, §2, §3, §4, §5

[5] = 6 nM NMT1 enzyme, 1.25 µM myristoyl-CoA, 20 µM HSPP60 SRC peptide, 45 minutes at 25 °C, read-out: NMT1 (IC50)

Row | SMILES | concentration at 1 h [1] | concentration at 4 h [1] | concentration at 8 h [1] | IC50 [2, 5] | IC50 [3] | 1 h Concentration [4] | 4 h Concentration [4] | 8 h Concentration [4] | IC50 [2] | IC50 ([3]; Homo sapiens)
1 | Cc1c(NS(=O)(=O)c2c(Cl)cc(N3CCc4sc5c(c4C3)CNCC5)cc2Cl)c(CC(F)(F)F)nn1C [Compound B35] | – | – | – | – | – | 2267 ± 1084 ng/mL | 1270 ± 384 ng/mL | 684 ± 239 ng/mL | 1.97 nM | 7.48 nM
2 | Cc1c(NS(=O)(=O)c2c(Cl)cc(-c3ccc4sc5c(c4c3)CCNC5)cc2Cl)c(CC(C)C)nn1C [Compound 54] | 3320 ± 1200 ng/mL | 2310 ± 211 ng/mL | 981 ± 343 ng/mL | 4.73 nM | 38 nM | – | – | – | – | –
3 | Cc1c(NS(=O)(=O)c2c(Cl)cc(-c3ccc4sc5c(c4c3)CNCC5)cc2Cl)c(CC2CC2)nn1C [Compound 21] | – | – | – | – | – | 1900 ± 199 ng/mL | 1114 ± 196 ng/mL | 679 ± 220 ng/mL | 3.58 nM | 26.9 nM
4 | Cc1c(NS(=O)(=O)c2c(Cl)cc(-c3ccc4sc5c(c4c3)CNCC5)cc2Cl)c(CC(F)(F)F)nn1C [Compound 17] | 5100 ± 2700 ng/mL | 4080 ± 1970 ng/mL | 3000 ± 1020 ng/mL | 5.62 nM | 62.5 nM | – | – | – | – | –
5 | Cc1nn(C)c(C)c1NS(=O)(=O)c1c(Cl)cc(-c2ccc3sc4c(c3c2)CNCC4)cc1Cl [Compound 1, 2,6-dichloro-4-(1,2,3,4-tetrahydrobenzo[4,5]thieno[3,2-c]pyridin-8-yl)-N-(1,3,5-trimethyl-1H-pyrazol-4-yl)benzenesulfonamide] | 1820 ± 493 ng/mL | 1350 ± 15 ng/mL | 723 ± 363 ng/mL | 3.44 nM | 11.1 nM | – | – | – | – | –
6 | Cc1c(NS(=O)(=O)c2c(Cl)cc(N3CCc4sc5c(c4C3)CNCC5)cc2Cl)c(CC(C)C)nn1C [Compound 63, 2,6-dichloro-4-(3,4,6,7,8,9-hexahydrothieno[3,2-c:4,5-c']dipyridine-2(1H)-yl)-N-(3-isobutyl-1,5-dimethyl-1H-pyrazol-4-yl)benzenesulfonamide] | – | – | – | 3.35 nM | 16.7 nM | – | – | – | – | –
7 | Cc1c(NS(=O)(=O)c2c(Cl)cc(-c3ccn4nc5c(c4c3)CNCC5)cc2Cl)c(CC(C)C)nn1C [Compound 48] | – | – | – | 4.2 nM | 36.7 nM | – | – | – | – | –
8 | CCc1nn(C)c(C)c1NS(=O)(=O)c1c(Cl)cc(N2CCn3nc4c(c3C2)CNCC4)cc1Cl [Compound 70] | – | – | – | 3.46 nM | 15.2 nM | – | – | – | – | –
9 | Cc1c(NS(=O)(=O)c2c(Cl)cc(-c3ccc4sc5c(c4c3)CNCC5)cc2Cl)c(CF)nn1C [Compound 16] | – | – | – | 4.67 nM | 58.5 nM | – | – | – | – | –
10 | CCc1nn(C)c(C)c1NS(=O)(=O)c1c(Cl)cc(N2CCc3sc4c(c3C2)CNCC4)cc1Cl [Compound 64] | – | – | – | 2.97 nM | 7.36 nM | – | – | – | – | –
11 | Cc1nn(C)c(C)c1NS(=O)(=O)c1c(Cl)cc(-c2ccc3oc4c(c3c2)CNCC4)cc1Cl [Compound 47] | – | – | – | 4.17 nM | 23.1 nM | – | – | – | – | –

More lines, main results first:

Row | concentration at 1 h [1] | concentration at 4 h [1] | concentration at 8 h [1] | IC50 [2, 5] | IC50 [3] | SMILES | 1 h Concentration [4] | 4 h Concentration [4] | 8 h Concentration [4] | IC50 [2] | IC50 ([3]; Homo sapiens)
12 | 1870 ± 389 ng/mL | 846 ± 698 ng/mL | 149 ± 114 ng/mL | 1.93 nM | 5.3 nM | Cc1c(NS(=O)(=O)c2ccc(-c3ccc4sc5c(c4c3)CNCC5)cc2Cl)c(CC(F)F)nn1C [Compound B59] | – | – | – | – | –
13 | 2960 ± 340 ng/mL | 1400 ± 240 ng/mL | 447 ± 71 ng/mL | 1.89 nM | 3.26 nM | Cc1c(NS(=O)(=O)c2ccc(-c3ccc4sc5c(c4c3)CNCC5)cc2Cl)c(CCF)nn1C [Compound B48] | – | – | – | – | –
14 | 9760 ± 410 ng/mL | 8530 ± 1170 ng/mL | 6730 ± 1450 ng/mL | 4.76 nM | 40.1 nM | Cc1c(NS(=O)(=O)c2ccc(-c3ccc4oc5c(c4c3)CNCC5)cc2Cl)c(CC(F)(F)F)nn1C [Compound B39] | – | – | – | – | –
15 | 2480 ± 626 ng/mL | 1020 ± 361 ng/mL | 399 ± 264 ng/mL | 4.02 nM | 27.2 nM | Cc1c(NS(=O)(=O)c2ccc(-c3ccc4oc5c(c4c3)CNCC5)cc2)c(CCF)nn1C [Compound B53] | – | – | – | – | –
16 | 2490 ± 1200 ng/mL | 1670 ± 467 ng/mL | 1040 ± 157 ng/mL | 4.85 nM | 37 nM | Cc1c(NS(=O)(=O)c2c(Cl)cc(-c3ccc4oc5c(c4c3)CNCC5)cc2Cl)c(CC#N)nn1C [Compound B18] | – | – | – | – | –
17 | 3630 ± 990 ng/mL | 2180 ± 185 ng/mL | 504 ± 71 ng/mL | 3.88 nM | 17.3 nM | Cc1c(NS(=O)(=O)c2ccc(-c3ccc4sc5c(c4c3)CCNC5)cc2)c(CCF)nn1C [Compound B52] | – | – | – | – | –
18 | 5040 ± 1820 ng/mL | 3800 ± 621 ng/mL | 3730 ± 1280 ng/mL | 1.94 nM | 9.51 nM | Cc1c(NS(=O)(=O)c2c(Cl)cc(-c3ccc4oc5c(c4c3)CNCC5)cc2Cl)c(CCF)nn1C [Compound B45] | – | – | – | – | –
19 | 3220 ± 650 ng/mL | 1710 ± 224 ng/mL | 1570 ± 104 ng/mL | 1.79 nM | 3.42 nM | Cc1c(NS(=O)(=O)c2c(Cl)cc(-c3ccc4sc5c(c4c3)CNCC5)cc2Cl)c(CCF)nn1C [Compound B43] | – | – | – | – | –
20 | 4630 ± 2020 ng/mL | 3380 ± 575 ng/mL | 2150 ± 206 ng/mL | 2.87 nM | 11.4 nM | Cc1c(NS(=O)(=O)c2c(Cl)cc(-c3ccc4oc5c(c4c3)CNCC5)cc2Cl)c(CC2CC2)nn1C [Compound B26] | – | – | – | – | –
21 | – | – | – | 3.95 nM | 17.9 nM | Cc1c(NS(=O)(=O)c2ccc(-c3ccc4oc5c(c4c3)CNCC5)cc2Cl)c(CCF)nn1C [Compound B50] | – | – | – | – | –
22 | – | – | – | 3.84 nM | 32.4 nM | Cc1c(NS(=O)(=O)c2ccc(-c3ccc4oc5c(c4c3)CNCC5)cc2)c(CC(C)C)nn1C [Compound B16] | – | – | – | – | –
23 | – | – | – | 3.6 nM | 17.4 nM | Cc1c(NS(=O)(=O)c2ccc(-c3ccc4oc5c(c4c3)CNCC5)cc2Cl)c(CC2CC2)nn1C [Compound B29] | – | – | – | – | –
24 | – | – | – | 2.95 nM | 11.8 nM | Cc1c(NS(=O)(=O)c2c(Cl)cc(N3CCc4sc5c(c4C3)CNCC5)cc2Cl)c(CC(F)F)nn1C [Compound B57] | – | – | – | – | –
25 | 1660 ± 366 ng/mL | 795 ± 127 ng/mL | 260 ± 63 ng/mL | 4.08 nM | 30.2 nM | Cc1c(NS(=O)(=O)c2ccc(-c3ccc4oc5c(c4c3)CNCC5)cc2)c(CC(F)F)nn1C [Compound B64] | – | – | – | – | –
26 | – | – | – | 2.75 nM | 26.2 nM | Cc1c(NS(=O)(=O)c2c(Cl)cc(N3CCc4oc5c(c4C3)CNCC5)cc2Cl)c(CC(F)(F)F)nn1C [Compound B36] | – | – | – | – | –
27 | – | – | – | 3.72 nM | 21.1 nM | Cc1c(NS(=O)(=O)c2c(Cl)cc(-c3ccc4sc5c(c4c3)CCNC5)cc2Cl)c(CC(F)F)nn1C [Compound B55] | – | – | – | – | –
28 | – | – | – | 1.79 nM | 5.45 nM | Cc1c(NS(=O)(=O)c2c(Cl)cc(-c3ccc4sc5c(c4c3)CNCC5)cc2Cl)c(CC(F)F)nn1C [Compound B54] | – | – | – | – | –
